Reference: patent publication US20260034091A1, “Compositions and Methods for Treating Metabolic Disorders” (The Regents of the University of California, priority 2022, published 2026)

Tests used:
[1] = tested on: 60% kcal fat diet induced metabolic syndrome and early stage NAFLD in mice; test: Rescue effect of TOFA in 60% kcal fat diet induced early-stage hepatic steatosis and associated metabolic disorders; type: in vivo, C57BL/6 male mice
Procedure: Six-week-old C57BL/6 male mice were fed with a 60 kcal % fat diet (Research Diets A12492i) for seven weeks before introduction of either vehicle (control) or 250 mg/kg initial loading dose of TOFA daily via twice daily oral gavage for one week (FIG. 2A). Mice were then treated with either vehicle (control) or 125 mg/kg maintenance dose of TOFA daily via twice daily gavage for three additional weeks. Mice weights were tracked during the entire time course. After three weeks of treatment, an intraperitoneal glucose tolerance test (IP-GTT) and insulin tolerance test (IP-ITT) were performed. Prior to these tests, mice were fasted for six hours before a challenge of either 1 g/kg D-glucose or 0.75 U/kg HumulinR (Eli Lilly) and blood glucose levels were monitored for two hours (Bayer Contour Next). Venous fasting blood was collected through the tail vein and used to measure fasting insulin levels by commercially available ELISA kits (CrystalChem90080). Prior to harvest, mice underwent whole body composition analysis (EchoMRI™ 2012). Upon study termination at 11 weeks, serum and liver samples were collected. Serum liver damage biomarkers, ALT and AST, were measured by commercially available kits (abcam 105134 and abcam105135, respectively). Hepatic and serum triglyceride levels were measured from a commercially available kit (abcam65336).

[2] = tested on: 60% HFD diet-induced obesity with PPARA KO; test: TOFA in genetic PPARA knockout mice, 60% HFD diet-induced obesity (DIO) model; type: in vivo, PPARA knockout (PPARA KO) male mice
Procedure: Six-week-old genetic PPARA knockout (PPARA KO) male mice were fed with a L-amino acid diet with 60 kcal % fat with 0.1% methionine and no added choline (CDAHFD; Research Diets A06071302i) for three weeks or fed with a 60 kcal % fat diet (DIO; Research Diets A12492i) for eight weeks before introduction of either vehicle (control) or 125 mg/kg of TOFA, BID, via oral gavage for an additional two weeks (FIG. 11A and FIG. 11J, respectively). C57BL/6J (WT) mice were fed with the CDAHFD and underwent similar experimental conditions and time course. Mice weights and adverse events were monitored during the treatment time course. Upon study termination, serum and liver samples were collected. Serum liver damage biomarkers, ALT and AST, were measured by commercially available kits (abcam105134 and abcam 105135, respectively). Hepatic and serum triglyceride levels were measured from a commercially available kit (abcam65336). Total RNA was extracted from liver tissues (Qiagen RNeasy kit 74106), and cDNA was prepared (BioRAD iScript™M Reverse Transcription) according to manufacturer's protocols. Quantitative PCR (qPCR) was performed with fast SYBR Green Mix (ThermoFisher A25742) on the QuantStudio6 System (Applied Biosciences). Protein expression levels of liver samples were measured by western blot using antibodies against ACC1/2 (CST3662, 1:1000), VLDLR (AF2258, 1:2000), CPT1A (CST12252, 1:1000), PPARA (abcam126285, 1:1000) and beta-tubulin (CST2146, 1:1000). Membranes were developed using a HRP secondary antibody (1:5000) and visualized using an enhanced chemiluminescent HRP substrate (Thermo34577). Additional liver samples were fixed in 4% paraformaldehyde and embedded in paraffin blocks for sectioning and subsequently stained with hematoxylin and eosin (H&E). Frozen fresh liver tissue was embedded in OCT, sectioned, and subsequently stained with Oil Red O.

[3] = 250 mg/kg daily 1 week then 125 mg/kg daily 3 weeks, twice daily oral gavage

SMILES: CCCCCCCCCCCCCCOc1ccc(C(=O)O)o1 [TOFA, 5-(Tetradecyloxy)-2-furoic acid]
- body weight [1, 3]: weight loss compared to the vehicle control treated mice
- fat mass relative to whole body weight (EchoMRI) [1, 3]: significant reduction of fat mass
- food intake [1, 3]: without impacting food intake
- lean mass relative to whole body weight (EchoMRI) [1, 3]: increase in lean mass
- fasting blood glucose levels ([1]; after three weeks of treatment, 6 h fast): vast improvements
- insulin tolerance test (IP-ITT) ([1]; after three weeks of treatment, 6 h fast, 0.75 U/kg HumulinR): improved insulin sensitivity
- intraperitoneal glucose tolerance test (IP-GTT) ([1]; after three weeks of treatment, 6 h fast, 1 g/kg D-glucose): more glucose tolerant
- fasting insulin levels ([1]; after three weeks of treatment, ELISA): significantly lower
- hepatic levels of triglycerides ([1]; study termination at 11 weeks): significantly reduced
- serum ALT ([1]; study termination at 11 weeks): no significant changes
- serum AST ([1]; study termination at 11 weeks): no significant changes
- serum levels of triglycerides ([1]; study termination at 11 weeks): significantly reduced
- body weight upon treatment start ([2]; 125 mg/kg BID oral gavage): decrease in weight
- Vldlr mRNA (RT-qPCR) ([2]; 125 mg/kg BID, two weeks): blunted response
- hepatic steatosis (H&E-stained liver sections) ([2]; 125 mg/kg BID, two weeks): minimal changes in hepatic steatosis
- serum triglyceride (serum lipid levels) ([2]; 125 mg/kg BID, two weeks): elevated serum lipid levels
- adverse events ([2]; 125 mg/kg BID, two-week treatment period): Adverse events were observed
